According to EP0000693A1, “Aminophenoxymethyl-2-morpholine derivatives, the preparation thereof and pharmaceuticals containing them” (Dr. Karl Thomae GmbH, priority 1977, dated 1979):
Structures can show the parent of a compound that is named as a salt. Where two headings read alike, the source gives them in different places.

What was measured:
[1] = tested on: Muskelrelax. + Sedierung Maus; test: Muscle relaxation and sedation (Versuch 3); format: in vivo; conditions: mouse; method text not readable (image)
[2] = tested on: maximalen Elektrokrampf bei Mäusen; test: Anticonvulsant effect: maximal electroshock seizure (Versuch 2); format: in vivo, Maus; conditions: Mus musculus, 2.5 h
Description: (§1) Beispielsweise wurden die Verbindungen • A = 2-(2-Amino-3,5-dibrom-phenoxy-methylen)-morpholin-hydrochlorid, • B = 2-(4-Amino-3,5-dibrom-phenoxy-methylen)-4-isopropyl-morpholin- hydrochlorid, • C = 2-(4-Amino-3,5-dibrom-phenoxy-methylen)-morpholin-hydrochlorid, • D = 2-(2-Amino-3,5-dibrom-phenoxy-methylen)-4-tert.butyl-morpholin-hydrochlorid und • E = 2-(2-Amino-5-brom-4-chlor-phenoxy-methylen)-4-isopronyl- morpholin-dihydrochlorid ,im Vergleich zu • F = 2-(2-Äthoxy-phenoxy-methylen)-morpholin-hydrochlorid auf ihre biologischen Wirkungen wie folgt untersucht: • 1. […] Bei 20 - 26 g schweren männlichen Mäusen wurde durch 3 mg/kg Reserpin s.c. Hypothermie erzeugt. 17 Stunden später wurde die Körpertemperatur mittels eines elektrischen Schlundsondenthermometers gemessen. Anschließend wurden Gruppen von 6 - 10 Tieren die zu prüfenden Substanzen in der Dosis von 40 mg/kg p.o. verabreicht. Kontrollgruppen erhielten das Lösungsmittel (Aqua dest.). Die Körpertemperaturen wurden 1 - 4 Stunden nach Substanzverabreichung in stündlichem Abstand gemessen. Zur Auswertung wurden der maximale Wiederanstieg der Körpertemperatur der Substanzgruppe mit den Temperaturen der Kontrolltiergruppen verglichen und die Temperaturunterschiede mit dem MANN-WHITNEY-U-Test auf Signifikanz geprüft. • 2. […] Dazu wurde bei 10 männlichen, 20-26 g schweren Mäusen ein Krampfzustand mit Wechselstrom (50 mA, 50 Hz, 0,2 sec Dauer) über mit physiologischer : Kochsalz-Lösung angefeuchtete, an den Kopf der Tiere gelegte Metallelektroden erzeugt, wobei das Ausbleiben der tonischen Extensorkomponente dieses Krampfes 150 Minuten nach Substanzgabe als antikonvulsive Wirkung gewertet wurde.

[3] = tested on: durch Reserpin hervorgerufene Hypothermie bei Mäusen; test: Antidepressant effect: antagonism of reserpine-induced hypothermia (Versuch 1); format: in vivo, Maus; conditions: 40 mg/kg p.o., 17 h after 3 mg/kg Reserpin s.c.; maximal re-rise of body temperature versus controls, measured 1 - 4 h after dosing; * = significant versus controls, p ≤ 0,05
Description: as §1

[4] = male mice, 50 mA, 50 Hz, 0,2 sec, absence of tonic extensor component 150 min after dosing, ED50 by LITCHFIELD and WILCOXON, read-out: Versuch 2 Elektrokrampf Maus ED50-Hemmung

Nc1c(Br)cc(Br)cc1OCC1CNCCO1 (stereo not drawn) [A, 2-(2-Amino-3,5-dibrom-phenoxy-methylen)-morpholin-hydrochlorid]
ED50 [1]: > 200 mg/kg
ED50 [2, 4]: 26.5 mg/kg
Versuch 1 Reserpin Maus 40 mg/kg: +°C [3]: 10,7* °C

CC(C)N1CCOC(COc2cc(Br)c(N)c(Br)c2)C1 (stereo not drawn) [B, 2-(4-Amino-3,5-dibrom-phenoxy-methylen)-4-isopropyl-morpholin-hydrochlorid]
ED50 [1]: 60 mg/kg
ED50 [2, 4]: 26 mg/kg
Versuch 1 Reserpin Maus 40 mg/kg: +°C [3]: 8,4* °C

Nc1c(Br)cc(OCC2CNCCO2)cc1Br (stereo not drawn) [C, 2-(4-Amino-3,5-dibrom-phenoxy-methylen)-morpholin-hydrochlorid]
ED50 [1]: 21 mg/kg
ED50 [2, 4]: 17.5 mg/kg
Versuch 1 Reserpin Maus 40 mg/kg: +°C [3]: 7,3* °C

CC(C)(C)N1CCOC(COc2cc(Br)cc(Br)c2N)C1 (stereo not drawn) [D, 2-(2-Amino-3,5-dibrom-phenoxy-methylen)-4-tert.butyl-morpholin-hydrochlorid]
ED50 [1]: > 200 mg/kg
ED50 [2, 4]: 150 mg/kg
Versuch 1 Reserpin Maus 40 mg/kg: +°C [3]: 0,6 °C

CC(C)N1CCOC(COc2cc(Br)c(Cl)cc2N)C1 (stereo not drawn) [E, 2-(2-Amino-5-brom-4-chlor-phenoxy-methylen)-4-isopronyl-morpholin-dihydrochlorid]
ED50 [1]: > 200 mg/kg
ED50 [2, 4]: 200 mg/kg
Versuch 1 Reserpin Maus 40 mg/kg: +°C [3]: 1,0 °C

CCOc1ccccc1OCC1CNCCO1 (stereo not drawn) [F, 2-(2-Äthoxy-phenoxy-methylen)-morpholin-hydrochlorid, reference compound]
ED50 [1]: ~200 mg/kg
ED50 ([2]; read-out: Versuch 2 Elektrokrampf Maus ED50-Hemmung mg/kg): 42 mg/kg
Versuch 1 Reserpin Maus 40 mg/kg: +°C [3]: 9,8* °C
